This note sets out measurements from ChEMBL document CHEMBL1201862, “PubChem BioAssay data set” (2004).

Common to all, as to experiment: NCI-60 cell line screen, 48 h
Test [1] concerns HOP-62.
For test [2], the system named is OVCAR-4.
The test system of test [3] is RXF 393.
The test system of test [4] is ACHN.
In test [5] the test system is Malme-3M.
The test system of test [6] is KM12.
In test [7] the test system is MDA-MB-435.
Test [8] relates to UACC-257.
The subject of test [9] is UACC-62.
The subject of test [10] is SW-620.
Test [11] relates to HT-29.
In test [12] the test system is A549.
Test [13] deals with NCI/ADR-RES.
For test [14], the system named is LOX IMVI.
In test [15] the test system is SN12C.
Test [16] has as its system HL-60.
In test [17] the test system is PC-3.
The subject of test [18] is SK-OV-3.
For test [19], the system named is A498.
Test [20] deals with HOP-92.

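Briefly, cells in 96-well plates were exposed to five compound concentrations for 48 h, and endpoints were estimated by linear interpolation. GI50: concentration for 50% inhibition of growth.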 Active and inactive are the calls of the source. Rule as the data show it: active = GI50 up to about 1.1 µM and inactive = higher. Where a SMILES comes first, the peptide text is derived from it. The star is where a group is joined. Cbz = O=C(OCc1ccccc1)*; NHNH2 = NN*

For the molecule `O=C1c2ccccc2-c2nc(-c3ccccc3)cc3c2c1nc1ccccc13`, the GI50 is 16.7 µM (inactive) in test [1]; 26.7 µM (inactive) in test [2]; 29.5 µM (inactive) in test [3]; 18.5 µM (inactive) in test [4]; 4.7 µM (inactive) in test [5]; 15.6 µM (inactive) in [6]. The GI50 in [7] is 1.87 µM (inactive); in test [8], 14.2 µM (inactive); in [9], 2.56 µM (inactive); in test [10] it was 13.2 µM (inactive); in test [11] it was 13.2 µM (inactive); in test [12], 16.9 µM (inactive). Further, the GI50 in [13] was 14.5 µM (inactive); in test [14], 1.77 µM (inactive); in test [15], 12.9 µM (inactive); in test [16] it was 1.03 µM (active); in [17] it was 4.08 µM (inactive); in [18], 19.5 µM (inactive).

Turning to `CC(=O)C1(C(=O)C(=[N+]=[N-])S(=O)(=O)c2ccccc2)CC1`, the GI50 in [1], in test [3], in test [4], in [5], in test [6] and in [7] was > 100 µM (inactive) each time. Also, the GI50 in [8], in [9], in [10], in test [11], in test [12] and in [13] was > 100 µM (inactive) throughout. The GI50 in test [14] is > 100 µM (inactive); in test [15], > 100 µM (inactive); in test [16], 74.1 µM (inactive); in test [17] it was > 100 µM (inactive).

For the molecule `CCCCCCCCCCCCCCCC(=O)OCC1OC(OC)C2NP(=O)(N(CCCl)CCCl)OC1C2O` (centres undefined), the GI50 in test [1] is 1 µM (active); in [2], 8.51 µM (inactive); in [3], 1.68 µM (inactive); in test [4], 0.953 µM (active); in test [5] it was 14.1 µM (inactive); in [6] it was 16.3 µM (inactive). Besides, the GI50 in [19] is 10.6 µM (inactive); in test [7], 7.55 µM (inactive); in [8] it was 12.1 µM (inactive); in test [9], 1.23 µM (inactive); in test [10] it was 2.22 µM (inactive); in test [11], 17.1 µM (inactive). Further, the GI50 was 6.11 µM (inactive) in [12]; 0.822 µM (active) in test [20]; 1.28 µM (inactive) in test [14]; 1.05 µM (active) in test [15]; 0.117 µM (active) in [16]; 2.5 µM (inactive) in test [17]. Also, in test [18], the GI50 was 11.5 µM (inactive).

As to `Clc1ccc(-c2nn3c(-c4ccncc4)nnc3s2)cc1`, the GI50 in [1] was 20.8 µM (inactive); in test [2], > 100 µM (inactive); in [3], 25.6 µM (inactive); in test [4] it was 61 µM (inactive); in test [5], > 100 µM (inactive); in test [6], > 100 µM (inactive). Besides, the GI50 in test [7], in test [8], in [9], in test [10], in test [11] and in test [12] was > 100 µM (inactive) in each case. In addition, the GI50 is > 100 µM (inactive) in [13]; 41.6 µM (inactive) in test [20]; > 100 µM (inactive) in test [14]; > 100 µM (inactive) in [15]; > 100 µM (inactive) in [16]; > 100 µM (inactive) in test [17]. The GI50 in [18] was 40.1 µM (inactive).

In the case of `CCOC(=O)CCC(NC(=O)OCc1ccccc1)C(=O)NC(CCC(=O)OCC)C(=O)NN` (centres undefined) (Cbz-Glu(OEt)-Glu(OEt)-NHNH2; configuration not given here), the GI50 in test [1], in test [4], in test [5], in [6], in test [19] and in test [8] was > 100 µM (inactive) each time. For the same molecule, the GI50 in test [9], in test [10], in test [11], in [12], in test [20] and in test [15] was > 100 µM (inactive) throughout. Besides, the GI50 in test [16] and in [17] was > 100 µM (inactive) in each case.

Turning to `Cn1nc(-c2ccc(S(=O)(=O)N/C(=N/c3ccc(Cl)cc3)NN)s2)cc1C(F)(F)F`, the GI50 in test [1] is 16.5 µM (inactive); in test [2], 15.9 µM (inactive); in test [3] it was 11.1 µM (inactive); in [4], 18.4 µM (inactive); in test [6], 16.6 µM (inactive); in test [19], 16.4 µM (inactive). In addition, the GI50 in [8] is 19.5 µM (inactive); in test [9], 16.9 µM (inactive); in test [10], 18.4 µM (inactive); in test [11], 16.2 µM (inactive); in [12], 15 µM (inactive); in test [13], 21.8 µM (inactive). Moreover, the GI50 is 20.4 µM (inactive) in test [20]; 18.3 µM (inactive) in test [14]; 15.3 µM (inactive) in [15]; < 0.01 µM (active) in test [16]; 16.9 µM (inactive) in [17]; 20.9 µM (inactive) in [18].

Regarding `COc1ccc(C2NC(N)=C(C#N)C3=C2C(C)CCC3)cc1OC` (centres undefined), the GI50 was 15.9 µM (inactive) in test [1]; > 100 µM (inactive) in [3]; 32.3 µM (inactive) in [4]; 28.6 µM (inactive) in [5]; 63.5 µM (inactive) in [6]; 63.5 µM (inactive) in test [7]. Besides, the GI50 in test [8] is 43.5 µM (inactive); in [9], 56 µM (inactive); in test [10] it was > 100 µM (inactive); in test [11], 40 µM (inactive); in test [13], 35.2 µM (inactive); in [14], 35.5 µM (inactive). The GI50 is 44.4 µM (inactive) in test [15], 14.5 µM (inactive) in test [16], 44.8 µM (inactive) in test [17] and 75.3 µM (inactive) in [18].

In the case of `O=C1NN=C2C=C(c3ccc(Cl)cc3)CC(c3cccc(Cl)c3)C12` (centres undefined), the GI50 in test [1] is 34.4 µM (inactive); in [2], 17.2 µM (inactive); in [3] it was 14.5 µM (inactive); in test [4], 19.9 µM (inactive); in [5], 37.2 µM (inactive); in test [6], 28.6 µM (inactive). In addition, the GI50 is 19.1 µM (inactive) in [7]; 17.9 µM (inactive) in test [8]; 15.8 µM (inactive) in test [9]; 27.9 µM (inactive) in test [10]; 21.9 µM (inactive) in test [11]; 16.4 µM (inactive) in test [12]. The GI50 in [13] was 39 µM (inactive); in [20], 9.79 µM (inactive); in test [14] it was 18.5 µM (inactive); in test [15], 22.5 µM (inactive); in [16], 21.2 µM (inactive); in test [17], 31.8 µM (inactive). Besides, in [18], the GI50 was 25.1 µM (inactive).

As for `COc1ccc(C2=C(OC(=O)N(C)C)c3cccn3-c3cc(Cl)ccc3S2)cc1`, the GI50 in test [1] was > 10 µM (inactive); in [2] it was 6.79 µM (inactive); in test [3], > 10 µM (inactive); in [5] it was > 10 µM (inactive); in test [6], > 10 µM (inactive); in test [7] it was > 10 µM (inactive). The GI50 is > 10 µM (inactive) in test [8]; > 10 µM (inactive) in test [9]; > 10 µM (inactive) in [10]; > 10 µM (inactive) in test [11]; > 10 µM (inactive) in [12]; 6.78 µM (inactive) in test [20]. The GI50 in test [14] was > 10 µM (inactive); in [15] it was > 10 µM (inactive); in test [16], 6.1 µM (inactive); in test [17], 5.64 µM (inactive); in test [18] it was > 10 µM (inactive).

For `C=C(C)C(O)C(O)C[C@@H](C)C1CC[C@]23C[C@]12CCC1[C@@]2(C)CCC(OC(C)=O)C(C)(C)C2CC(OC2OC(CO)C(O)C(O)C2O)[C@]13C` (some centres undefined), the GI50 is 16.7 µM (inactive) in test [1]; 16 µM (inactive) in [2]; 15.4 µM (inactive) in test [3]; 31.6 µM (inactive) in test [4]; 17.5 µM (inactive) in test [5]; 17.7 µM (inactive) in test [6]. The GI50 was 17.5 µM (inactive) in test [7]; 17 µM (inactive) in [8]; 17.7 µM (inactive) in test [9]; 16.7 µM (inactive) in [10]; 18.2 µM (inactive) in test [11]; 50 µM (inactive) in [12]. Besides, the GI50 was > 100 µM (inactive) in test [13]; 12.9 µM (inactive) in test [20]; 17.6 µM (inactive) in test [14]; 16.8 µM (inactive) in test [15]; 18.1 µM (inactive) in [16]; 18.4 µM (inactive) in [17]. Besides, in test [18], the GI50 was 20.9 µM (inactive).

Consider `CC(C)C(=O)OCC1OC(n2c(Br)nc3c(=O)[nH]c(N)nc32)C(OC(=O)C(C)C)C1OC(=O)C(C)C` (centres undefined), for which the GI50 was > 100 µM (inactive) in [1]; > 100 µM (inactive) in [4]; > 100 µM (inactive) in test [5]; > 100 µM (inactive) in test [8]; 31.8 µM (inactive) in test [9]; 29.2 µM (inactive) in test [10]. For the same molecule, the GI50 in test [11] is 17.8 µM (inactive); in test [12], 35.6 µM (inactive); in test [13] it was > 100 µM (inactive); in test [20], > 100 µM (inactive); in [14], 19.8 µM (inactive); in test [15], 48 µM (inactive). Further, the GI50 in test [17] was 21.6 µM (inactive); in [18], 30.3 µM (inactive).
